SMILES strings stand for the structures. pIC50: −log10 of the molar value. Where only a bound is given, the exact number is not on record here.

Usually pIC50 stands for −log10 of the IC50, conventionally taken in molar units.

The assay concerns the target T1, hAhR (Homo sapiens, UniProt P35869).
T1 construct: Stably integrated DRE-luciferase cell lines were generated by transducing the both cell lines with Cignal XRE luciferase reporter (Qiagen) lentiviral particles; endogenous in cells
T1 sequence (P35869 11-848): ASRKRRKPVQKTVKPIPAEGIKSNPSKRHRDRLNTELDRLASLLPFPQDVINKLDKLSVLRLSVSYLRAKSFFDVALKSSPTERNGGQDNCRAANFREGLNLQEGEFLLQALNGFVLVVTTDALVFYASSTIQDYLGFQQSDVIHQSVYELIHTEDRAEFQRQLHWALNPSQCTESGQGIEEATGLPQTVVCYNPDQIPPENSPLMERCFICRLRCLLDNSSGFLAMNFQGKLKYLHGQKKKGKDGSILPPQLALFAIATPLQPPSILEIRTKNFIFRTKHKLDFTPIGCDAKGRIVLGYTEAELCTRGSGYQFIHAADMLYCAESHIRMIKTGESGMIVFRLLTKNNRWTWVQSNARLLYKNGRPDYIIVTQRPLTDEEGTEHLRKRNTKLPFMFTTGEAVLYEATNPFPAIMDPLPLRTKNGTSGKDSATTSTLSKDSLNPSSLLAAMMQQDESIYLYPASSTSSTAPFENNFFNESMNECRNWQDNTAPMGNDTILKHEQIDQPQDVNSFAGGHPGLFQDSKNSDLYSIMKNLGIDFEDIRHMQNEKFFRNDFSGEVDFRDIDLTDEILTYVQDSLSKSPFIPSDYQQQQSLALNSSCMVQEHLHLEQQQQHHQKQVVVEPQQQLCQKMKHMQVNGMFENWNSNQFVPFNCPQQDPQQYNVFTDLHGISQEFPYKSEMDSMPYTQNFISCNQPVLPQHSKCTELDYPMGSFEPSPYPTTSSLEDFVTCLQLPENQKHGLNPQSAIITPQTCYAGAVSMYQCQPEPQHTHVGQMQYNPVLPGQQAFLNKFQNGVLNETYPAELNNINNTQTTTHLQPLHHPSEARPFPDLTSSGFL
Kind of assay: AhR DRE-luciferase reporter transcriptional assay, antagonist mode (TCDD-induced). As to conditions: HEPG2 DRE-Luc cells, 3 nM TCDD, 24 hour incubation, relative IC50. The format is cell-based. As for the experimental part:
HEPG2 and HEPA1C1C7 cells were maintained in MEM and αMEM without nucleosides supplemented with 10% heat inactivated FBS respectively. Stably integrated DRE-luciferase cell lines were generated by transducing the both cell lines with Cignal XRE luciferase reporter (Qiagen) lentiviral particles according to the manufacturer protocol. For both cell lines stably integrated reporter cell lines were selected for the presence of 2 µg/mL puromycin. Following selection of stably integrated cell line pools, clonal cell lines were isolated by limiting dilution in 96-well plates. Transcriptional assays were performed by seeding 100 μL of cells at a density of 250,000 or 100,000 cells/mL, for HEPG2 and HEPA1C1C7 DRE-Luc cells respectively, into 96-well cell culture plates in OptiMEM supplemented with 0.5% heat inactivated FBS and allowed to attach overnight. For modulator assays, the compounds were added in a semi-log dose response using a D300e Digital Dispenser (Tecan) followed normalization with vehicle (DMSO). Immediately following compound addition 10 μL of 2,3,7,8-Tetrachlorodibenzo-p-dioxin (TCDD) was added to the cells to a final concentration of 3 nM or 0.3 nM for the HEPG2 and HEPA1C1C7 DRE-Luc cells respectively. Following 24 hour incubation the medium was removed and the cells were lysed in 25 μL of Reporter Lysis Buffer (Promega). Firefly luciferase activity was measured immediately following the addition of 50 μL Luciferase Assay Reagent (Promega). The percent maximal activity for each point was determined using the following equasion: (RLUsample-RLUvehicle−TCDD)/(RLUvehicle+TCDD RLUvehicle−TCDD)*100. The relative IC50, defined as the compound concentration required to reduce the TCDD induced response between the top and bottom plateau of each individual dose response curve by half, for each compound was determined using Prism 7 (GraphPad Software).
A general note: Reporter assays use an easily measured gene product as a stand-in for the process of interest.
Compound `Cc1cc(-c2nc3ccc(C(F)(F)F)cc3s2)ccc1NC(=O)c1ccnn1C` [Example 101, 1-methyl-N-(2-methyl-4-(6-(trifluoromethyl)benzo[d]thiazol-2-yl)phenyl)-1H-pyrazole-5-carboxamide] showed a pIC50 of 6.30 to 6.70.
The compound `Cc1cc(-c2ccc3cccc(Cl)c3n2)ccc1NC(=O)c1ccnn1C` [Example 012, N-(4-(8-chloroquinolin-2-yl)-2-methylphenyl)-1-methyl-1H-pyrazole-5-carboxamide] gave a pIC50 greater than 6.70.
Consider `Cc1cc(NC(=O)c2ccnn2C)ncc1-c1ccc2cc(F)ccc2n1` [Example 043, N-(5-(6-fluoroquinolin-2-yl)-4-methylpyridin-2-yl)-1-methyl-1H-pyrazole-5-carboxamide], for which the pIC50 was 5.00 to 6.00.
`Cc1cc(-c2nc3cc(F)ccc3s2)ccc1NC(=O)c1ccnn1C` [Example 099, N-(4-(5-fluorobenzo[d]thiazol-2-yl)-2-methylphenyl)-1-methyl-1H-pyrazole-5-carboxamide] showed a pIC50 greater than 6.70.
Compound `Cn1nccc1C(=O)Nc1ccc(-c2ccc3cc(C(F)(F)F)ccc3n2)cc1F` [Example 077, N-(2-fluoro-4-(6-(trifluoromethyl)quinolin-2-yl)phenyl)-1-methyl-1H-pyrazole-5-carboxamide] showed a pIC50 of 6.30 to 6.70.
Take `Cc1cc(-c2ccc3nc(C(F)(F)F)ccc3n2)ccc1N(C)C(=O)c1ccnn1CCO` [Example 210, 1-(2-hydroxyethyl)-N-methyl-N-(2-methyl-4-(6-(trifluoromethyl)-1,5-naphthyridin-2-yl)phenyl)-1H-pyrazole-5-carboxamide]: the pIC50 was greater than 6.70.
The compound `Cc1cc(-c2ncc3nc(C(F)(F)F)cc(C)c3n2)ccc1N(C)C(=O)c1ccnn1CCO` [Example 173, 1-(2-hydroxyethyl)-N-methyl-N-(2-methyl-4-(8-methyl-6-(trifluoromethyl)-pyrido[3,2-d]pyrimidin-2-yl)phenyl)-1H-pyrazole-5-carboxamide] showed a negative logarithm of the IC50 (pIC50) greater than 6.70.
Compound `Cc1cc(-c2ccc3cc(N)ccc3n2)ccc1NC(=O)c1ccnn1C` [Example 075, N-(4-(6-aminoquinolin-2-yl)-2-methylphenyl)-1-methyl-1H-pyrazole-5-carboxamide] gave a pIC50 of 5.00 to 6.00.
As for `Cc1cc(-c2ncc3cc(C(F)(F)F)ccc3n2)ccc1NC(=O)c1ccnc(C(N)=O)c1` [Example 151, N4-(2-methyl-4-(6-(trifluoromethyl)quinazolin-2-yl)phenyl)pyridine-2,4-dicarboxamide], the figure is greater than 6.70; as for `Cn1nccc1C(=O)Nc1ccc(-c2ccc3cc(F)ccc3n2)cc1F` [Example 066, N-(2-fluoro-4-(6-fluoroquinolin-2-yl)phenyl)-1-methyl-1H-pyrazole-5-carboxamide], 6.00 to 6.30; as for `Cn1nccc1C(=O)Nc1ccc(-c2ncc3nc(C(F)(F)F)ccc3n2)cc1F` [Example 137, N-(2-fluoro-4-(6-(trifluoromethyl)pyrido[3,2-d]pyrimidin-2-yl)phenyl)-1-methyl-1H-pyrazole-5-carboxamide], greater than 6.70.
As for `COc1cc(C(=O)Nc2ccc(-c3ncc4cc(C(F)(F)F)ccc4n3)cc2C)ccn1` [Example 142, 2-methoxy-N-(2-methyl-4-(6-(trifluoromethyl)quinazolin-2-yl)phenyl)isonicotinamide], the figure is greater than 6.70; as for `Cc1cc(-c2ccc3cc(Br)ccc3n2)ccc1NC(=O)c1ccnn1C` [Example 064, N-(4-(6-bromoquinolin-2-yl)-2-methylphenyl)-1-methyl-1H-pyrazole-5-carboxamide], 6.30 to 6.70; as for `Cc1cc(-c2ncc3nc(C(F)(F)F)cc(C)c3n2)ccc1N(C)C(=O)c1cc(C(=O)O)nn1CC#N` [Example 197, 1-(cyanomethyl)-5-(methyl(2-methyl-4-(8-methyl-6-(trifluoromethyl)-pyrido[3,2-d]pyrimidin-2-yl)phenyl)carbamoyl)-1H-pyrazole-3-carboxylic acid], 5.00 to 6.00.
As for `CNC(=O)c1cc(C(=O)Nc2ccc(-c3ncc4nc(C(F)(F)F)cc(C)c4n3)cc2C)ccn1` [Example 167, N2-methyl-N4-(2-methyl-4-(8-methyl-6-(trifluoromethyl)pyrido[3,2-d]pyrimidin-2-yl)phenyl)pyridine-2,4-dicarboxamide], the figure is greater than 6.70; as for `Cc1cc(-c2ccc3cc(F)ccc3n2)ccc1NC(=O)c1ccccn1` [Example 026, N-(4-(6-fluoroquinolin-2-yl)-2-methylphenyl)picolinamide], 6.00 to 6.30; as for `Cc1cc(-c2ccc3c(C(F)(F)F)cn(C)c3c2)ccc1NC(=O)c1ccnn1C` [Example 086, 1-methyl-N-(2-methyl-4-(1-methyl-3-(trifluoromethyl)-1H-indol-6-yl)phenyl)-1H-pyrazole-5-carboxamide], 5.00 to 6.00.
`Cc1cc(-c2ccc3cncc(Cl)c3n2)ccc1NC(=O)c1ccnn1C` [Example 104, N-(4-(8-chloro-1,6-naphthyridin-2-yl)-2-methylphenyl)-1-methyl-1H-pyrazole-5-carboxamide] gave a pIC50 greater than 6.70.
As for `Cc1cc(-c2ccc3cc(F)cc(Br)c3n2)ccc1NC(=O)c1ccnn1C` [Example 051, N-(4-(8-bromo-6-fluoroquinolin-2-yl)-2-methylphenyl)-1-methyl-1H-pyrazole-5-carboxamide], the figure is greater than 6.70; as for `Cc1cc(-c2ccc3cc(F)ccc3n2)ccc1NC(=O)c1cnoc1C` [Example 038, N-(4-(6-fluoroquinolin-2-yl)-2-methylphenyl)-5-methylisoxazole-4-carboxamide], 6.00 to 6.30; as for `Cc1cc(-c2ncc3cc(C(F)(F)F)ccc3n2)ccc1N(C)C(=O)N(C)C` [Example 129, 1,1,3-trimethyl-3-(2-methyl-4-(6-(trifluoromethyl)quinazolin-2-yl)phenyl)urea], 6.30 to 6.70.
The compound `Cc1cc(-c2ccc3cc(F)ccc3n2)ccc1NC(=O)c1cocn1` [Example 036, N-(4-(6-fluoroquinolin-2-yl)-2-methylphenyl)oxazole-4-carboxamide] gave a pIC50 of 6.00 to 6.30.
`Cc1cc(-c2ncc3cc(C(F)(F)F)ccc3n2)ccc1NC(=O)c1nn(C)cc1C` [Example 216, 1,4-dimethyl-N-(2-methyl-4-(6-(trifluoromethyl)quinazolin-2-yl)phenyl)-1H-pyrazole-3-carboxamide] had a pIC50 greater than 6.70.
Next, `Cc1cc(-c2ccc3cc(F)ccc3n2)ccc1NC(=O)c1cccnn1` [Example 031, N-(4-(6-fluoroquinolin-2-yl)-2-methylphenyl)pyridazine-3-carboxamide]: 6.00 to 6.30; `CNC(=O)N(C)c1ccc(-c2ncc3cc(C(F)(F)F)ccc3n2)cc1C` [Example 127, 1,3-dimethyl-1-(2-methyl-4-(6-(trifluoromethyl)quinazolin-2-yl)phenyl)urea]: greater than 6.70; `Cc1cc(-c2ncc3nc(C(F)(F)F)cc(C)c3n2)ccc1N(C)C(=O)c1cc(C(=O)O)nn1CC(N)=O` [Example 195, 1-(2-amino-2-oxoethyl)-5-(methyl(2-methyl-4-(8-methyl-6-(trifluoro-methyl)pyrido[3,2-d]pyrimidin-2-yl)phenyl)carbamoyl)-1H-pyrazole-3-carboxylic acid]: 5.00 to 6.00.
In the case of `Cc1cc(-c2ncc3cc(C(F)(F)F)ccc3n2)ccc1N(C)C(=O)c1cnc[nH]1` [Example 131, N-methyl-N-(2-methyl-4-(6-(trifluoromethyl)quinazolin-2-yl)phenyl)-1H-imidazole-5-carboxamide], the pIC50 is 6.30 to 6.70.
`Cc1c(-c2ccc3cc(C(F)(F)F)ccc3n2)ccc(NC(=O)c2ccnn2C)c1F` [Example 005, N-(2-fluoro-3-methyl-4-(6-(trifluoromethyl)quinolin-2-yl)phenyl)-1-methyl-1H-pyrazole-5-carboxamide] showed a negative-log IC50 (pIC50) of 5.00 to 6.00.
